From patent publication EP4417607A1, “HETEROCYCLIC COMPOUND AS SOS1 INHIBITOR AND USES THEREOF” (Nanjing Zaiming Pharmaceutical Co., Ltd., priority 2021, dated 2023)
pIC50: −log10 of the molar value.

Legend:
[1] = tested on: p-ERK pathway in H358 cells; experiment: p-ERK pathway inhibition in H358 cells (Advanced phospho-ERK (Thr202/Tyr204) cellular kit, HTRF); type: cell-based
Summary of the method: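 Serum-starved H358 cells (50000/well, overnight) treated with compound for 1 h at 37 °C, then lysed; phospho-ERK (Thr202/Tyr204) read by HTRF (665/620 nm ratio). Cell-free wells set 100% inhibition, untreated cells 0%; IC50 fitted from 8 concentrations by four-parameter curve.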

[2] = tested on: H358 cells; experiment: H358 cell proliferation inhibition (CellTiter-Glo luminescent cell viability assay); type: cell-based; conditions: 7 days
Summary of the method: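 H358 cells seeded at 3000 cells/well in RPMI1640/10% FBS, treated with compound for 7 days at 37 °C/5% CO2. Viability read by CellTiter-Glo 3D luminescence, normalised to cell-free (100%) and compound-free (0%) controls; IC50 fitted from 8 concentrations by four-parameter curve.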

[3] = Pharmacokinetics in mice after single intragastric or intravenous administration; type: in vivo; conditions: female, BALB/c nude, mouse, plasma
Method: Healthy adult female BALB/c nude mice were evenly divided into groups of 3 mice per group. 3 mice were administered intragastrically, and 3 mice were administered intravenously. The mice were purchased from Beijing Vital River Laboratory Animal Technology Co., Ltd., animal production license number: SCXK (Zhejiang) 2019-0001.
A certain amount of the compound of the present invention was weighed and dissolved in 5% DMSO + 20% PG + 5% anhydrous ethanol + 10% solutol + 60% water to prepare 5 mg/mL for intragastric administration. A certain amount of the compound of the present invention was weighed and dissolved in 1% DMSO + 4% PG + 1% anhydrous ethanol + 2% solutol + 92% water to prepare 0.5 mg/mL for intravenous injection.
Intragastric administration group: BALB/c nude mice were fasted overnight and then intragastrically administered the compound at a dose of 50 mg/kg and a volume of 10 mL/kg.
Intravenous administration group: BALB/c nude mice were fasted overnight and then intravenously administered the compound at a dose of 3 mg/kg and a volume of 6 mL/kg.
After intragastric administration or intravenous administration, 40 µL of blood was collected from orbits of the mice at 5 min, 15 min, 30 min, 1 h, 2 h, 4 h, 6 h, 8 h, and 24 h after administration, anticoagulated with 5 µL of EDTA-K2, centrifuged at 12000 rpm at 4 °C for 5 min to separate the plasma, and stored at -20 °C.
Determination of plasma concentrations in mice after intragastric administration or intravenous administration of different concentrations of the test compounds: the sample was melted at room temperature and vortexed for 1 min; 10 µL of the sample was quantitatively transferred to a 2-mL 96-well plate; 50 µL of an internal standard solution (a solution of tolbutamide in acetonitrile) and 50 µL of a precipitant (acetonitrile:methanol 7:3) were added, and the plate was shaken (1000 rpm * 3 min); the mixture was centrifuged (4000 rpm * 15 min); 80 µL of the supernatant was transferred to a 2-mL 96-well plate; 80 µL of a diluent (water) was added; the mixture was shaken evenly (1000 rpm * 3 min), and 5 µL of the sample was analyzed. LC/MS/MS conditions: The mobile phase A was 0.1% aqueous formic acid solution. The mobile phase B was 0.1% formic acid in acetonitrile. The column was Waters T3 1.8 µm (2.1 mm * 30 mm). The column temperature was 40 °C.

[4] = Homo sapiens, NCI-H358, 1 h compound incubation
[5] = po, single intragastric administration, 50 mg/kg
[6] = single intravenous administration, 3 mg/kg

## COc1c(=O)n(C2(CF)CC2)cc2c(N[C@H](C)c3cccc(C(F)F)c3F)nc(C)nc12 [Example 1, (R)-4-((1-(3-(difluoromethyl)-2-fluorophenyl)ethyl)amino)-6-(1-(fluoromethyl)cyclopropyl)-8-methoxy-2-methylpyrido[4,3-d]pyrimidine-7(6H)-one]
[1]; [4]
  pIC50: 7.68
[2]; Homo sapiens, NCI-H358, 168 h
  pIC50: 7.71
[3]; [5]
  AUC(0-t): 17800 ng·h/mL
  Cmax: 9430 ng/mL
  Tmax: 24 min
  half-life: 60 min
[3]; [6]
  AUC(0-t): 619 ng·h/mL
  C0: 2960 ng/mL
  half-life: 30 min
[3]; single intravenous administration, 3 mg/kg, read-out: Vss
  Vd: 3.8 L/kg

## Cc1nc(N[C@H](C)c2cccc(C(F)F)c2F)c2cn(C3(CF)CC3)c(=O)c(N3CCN(C4(C)COC4)CC3)c2n1 [Example 143]
[1]; [4]
  pIC50: 7.46
[2]; Homo sapiens, NCI-H358, 168 h
  pIC50: 7.80

## Cc1nc(N[C@H](C)c2cccc(C(F)F)c2F)c2cn(C3(CF)CC3)c(=O)c(C3(O)CCN(C4COC4)CC3)c2n1 [Example 145, (R)-4-((1-(3-(difluoromethyl)-2-fluorophenyl)ethyl)amino)-6-(1-(fluoromethyl)cyclopropyl)-8-(4-hydroxy-1-(oxetan-3-yl)piperidin-4-yl)-2-methylpyrido[4,3-d]pyrimidine-7(6H)-one]
[1]; [4]
  pIC50: 6.86
[2]; Homo sapiens, NCI-H358, 168 h
  pIC50: 7.19

## COC1(c2c(=O)n(C3(CF)CC3)cc3c(N[C@H](C)c4cccc(C(F)F)c4F)nc(C)nc23)COC1 [Example 150, (R)-4-((1-(3-(difluoromethyl)-2-fluorophenyl)ethyl)amino)-6-(1-(fluoromethyl)cyclopropyl)-8-(3-methoxyoxetan-3-yl)-2-methylpyrido[4,3-d]pyrimidine-7(6H)-one]
[1]; [4]
  pIC50: 7.37
[2]; Homo sapiens, NCI-H358, 168 h
  pIC50: 7.16

## Cc1nc(N[C@H](C)c2cccc(C(F)F)c2F)c2cn(C3(CF)CC3)c(=O)c(N3CCC4(CC3)COC4)c2n1 [Example 151, (R)-4-((1-(3-(difluoromethyl)-2-fluorophenyl)ethyl)amino)-6-(1-(fluoromethyl)cyclopropyl)-2-methyl-8-(2-oxa-7-azaspiro[3.5]nonan-7-yl)pyrido[4,3-d]pyrimidine-7(6H)-one]
[1]; [4]
  pIC50: 7.38
[2]; Homo sapiens, NCI-H358, 168 h
  pIC50: 7.14

## Cc1nc(N[C@H](C)c2cccc(C(F)F)c2F)c2cn(C3(CF)CC3)c(=O)c(N3CC4CC(C3)N4C3COC3)c2n1 [Example 152, 4-(((R)-1-(3-(difluoromethyl)-2-fluorophenyl)ethyl)amino)-6-(1-(fluoromethyl)cyclopropyl)-2-methyl-8-(6-(oxetan-3-yl)-3,6-diazabicyclo[3.1.1]heptan-3-yl)pyrido[4,3-d]pyrimidine-7(6H)-one]
[1]; [4]
  pIC50: 7.12
[2]; Homo sapiens, NCI-H358, 168 h
  pIC50: 7.87

## COC1(C)CCN(c2c(=O)n(C3(CF)CC3)cc3c(N[C@H](C)c4cccc(C(F)F)c4F)nc(C)nc23)CC1 [Example 155]
[1]; [4]
  pIC50: 7.22
[2]; Homo sapiens, NCI-H358, 168 h
  pIC50: 6.91

## Cc1nc(N[C@H](C)c2cccc(C(F)F)c2F)c2cn(C3(CF)CC3)c(=O)c(N3CCC(N(C)C)CC3)c2n1 [Example 158]
[1]; [4]
  pIC50: 6.84
[2]; Homo sapiens, NCI-H358, 168 h
  pIC50: 7.90

## Cc1nc(N[C@H](C)c2cccc(C(F)F)c2F)c2cn(C3(CF)CC3)c(=O)c(N3CCC(N4CCCC4)CC3)c2n1 [Example 159]
[1]; [4]
  pIC50: 6.86
[2]; Homo sapiens, NCI-H358, 168 h
  pIC50: 7.29

## COc1ccc(-c2c(=O)n(N3CCOCC3)cc3c(N[C@H](C)c4cccc(C#N)c4C)nc(C)nc23)cn1 [Example 162]
[1]; [4]
  pIC50: 7.11
[2]; Homo sapiens, NCI-H358, 168 h
  pIC50: 7.02

## Cc1nc(N[C@H](C)c2cccc(C#N)c2C)c2cn(C3(CF)CC3)c(=O)c(N3CCOCC3(C)C)c2n1 [Example 171, (R)-3-(1-((8-(3,3-dimethylmorpholinyl)-6-(1-(fluoromethyl)cyclopropyl)-2-methyl-7-oxo-6,7-dihydropyrido[4,3-d]pyrimidin-4-yl)amino)ethyl)-2-methylbenzonitrile]
[1]; [4]
  pIC50: 7.12
[2]; Homo sapiens, NCI-H358, 168 h
  pIC50: 7.28

## Cc1nc(N[C@H](C)c2cccc(C(F)F)c2F)c2cn(C3(CF)CC3)c(=O)c(N3CC4CC(C3)O4)c2n1 [Example 174]
[1]; [4]
  pIC50: 7.69
[2]; Homo sapiens, NCI-H358, 168 h
  pIC50: 7.44

## [2H]C1([2H])COC[C@H](C)N1c1c(=O)n(C2(CF)CC2)cc2c(N[C@H](C)c3cccc(C(F)F)c3F)nc(C)nc12 [Example 175]
[1]; [4]
  pIC50: 7.51
[2]; Homo sapiens, NCI-H358, 168 h
  pIC50: 7.44

## Cc1nc(N[C@H](C)c2cccc(C(F)F)c2F)c2cn(C3(CF)CC3)c(=O)c(-c3cnn4c3COCC4)c2n1 [Example 176]
[1]; [4]
  pIC50: 6.90
[2]; Homo sapiens, NCI-H358, 168 h
  pIC50: 6.88

## (R)-4-((1-(3-(difluoromethyl)-2-fluorophenyl)ethyl)amino)-6-(1-(fluoromethyl)cyclopropyl)-8-(2-hydroxyprop-2-yl)-2-methylpyrido[4,3-d]pyrimidine-7(6H)-one [Example 144]
[1]; 1 h compound incubation
  pIC50: 7.40
[2]
  pIC50: 6.98
